Numbering of substitutions follows the chain as printed.
Columns and labels:
AtHMGB1 = target: T1, AtHMGB1 (Arabidopsis thaliana, UniProt O49595); experiment: SPR: AtHMGB1 binding to immobilized 3AESA
T1 sequence (O49595 1-178): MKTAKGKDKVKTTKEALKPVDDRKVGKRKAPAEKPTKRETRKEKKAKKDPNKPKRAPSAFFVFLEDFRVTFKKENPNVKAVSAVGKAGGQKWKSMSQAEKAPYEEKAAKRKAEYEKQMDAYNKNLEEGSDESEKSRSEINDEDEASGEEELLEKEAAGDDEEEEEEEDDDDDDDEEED
Experimental: For SPR, 3-AESA was immobilized on a CM5 sensor chip (GE Healthcare) using the amine coupling kit (GE Healthcare). To test SA binding activity, 0.5 μM HMGB1 in HBS-EP buffer (0.01 M HEPES, pH 7.4, 0.15 M NaCl, 3 mM EDTA, 0.005% v/v Surfactant P20; GE Healthcare) without or with varying concentrations of SA was flowed through 3-AESA-immobilized or mock-coupled flow cells. The binding signals were determined by subtracting out the signal from the mock-coupled flow cell.

AtHMGB3 = target: T2, AtHMGB3 (Arabidopsis thaliana, UniProt P93047); experiment: SPR: AtHMGB3 binding to immobilized 3AESA; parameters: providing a full length Arabidopsis thaliana HMGB1 or HMGB3 (AtHMGB1 or AtHMGB3) protein; 6x His; made in house; host or cells: Escherichia coli BL21
T2 sequence (P93047 1-141): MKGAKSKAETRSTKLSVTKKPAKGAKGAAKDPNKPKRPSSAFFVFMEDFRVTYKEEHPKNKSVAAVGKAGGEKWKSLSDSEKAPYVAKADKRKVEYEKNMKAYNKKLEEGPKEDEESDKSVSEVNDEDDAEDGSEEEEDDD

COX = settings: cited from earlier work
[1] = de-acetylation by esterases in human plasma (Costello et al., 1984); cited from earlier work
HMGB1^RE = target: T3, HMGB1^RE (Homo sapiens, UniProt P09429); experiment: Chemotaxis assay (Boyden chambers): HMGB1^RE-elicited migration of mouse 3T3 fibroblasts; format: cell-based
T3 construct: (i) full length: residues 2-215; 6x His (cleaved yes); made in house; host or cells: Escherichia coli BL21
T3 sequence (P09429 2-215): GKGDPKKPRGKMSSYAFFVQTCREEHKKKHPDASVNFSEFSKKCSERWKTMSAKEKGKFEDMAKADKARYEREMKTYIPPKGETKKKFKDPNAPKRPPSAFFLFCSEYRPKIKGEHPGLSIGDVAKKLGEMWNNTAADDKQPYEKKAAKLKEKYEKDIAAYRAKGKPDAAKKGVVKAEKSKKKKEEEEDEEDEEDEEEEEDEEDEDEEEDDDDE
Experimental: (§1) Cell migration was assayed using Boyden chambers (Venereau et al., 2012). The downside of PVP-free polycarbonate filters (8 μm pores; Millipore) was coated with 50 μg/ml fibronectin (Sigma). Serum-free DMEM (negative control), DMEM containing 0.1 nM fMLP (positive control; Sigma), or DMEM containing 1 nM HMGB1^RE or HMGB1^SS were placed in the lower chamber, together with different concentrations of SA (Sigma). The mouse 3T3 fibroblast cells were cultured in DMEM media supplemented with 10% CS until 90% confluence, washed twice with PBS to eliminate any floating cells, and harvested with trypsin. 50,000 cells in 200 μL were added to the upper chamber, and cells were left to migrate for 3 h at 37° C. Non-migrating cells were removed with a cotton swab, and migrated cells were fixed with ethanol and stained with Giemsa.
(§2) HMGB1^RE acts as a chemo-attractant that mediates migration of several cell types, including monocytes, fibroblasts, mesoangioblasts, smooth muscle cells, and colon cancer cells (Venereau et al., 2012). To determine whether SA alters HMGB 1's chemo-attractant activity, a chemotaxis assay was performed with mouse 3T3 fibroblasts.

[2] = system: fMLP-induced migration of NIH/3T3 fibroblast cells; experiment: Chemotaxis assay: fMLP-induced fibroblast migration (specificity control); format: cell-based, mouse; settings: 0.1 nM fMLP
Experimental: as §1, §2

[3] = target: T4, mutant (R24A/K28A) HMGB1^RE (Homo sapiens, UniProt P09429, K28A/R24A); experiment: Chemotaxis assay with mutant R24A/K28A HMGB1^RE; format: cell-based; settings: NIH/3T3 fibroblasts
T4 construct: (i) full length: residues 2-215; made in house
T4 sequence (P09429 2-215 R24A/K28A): T3 sequence (P09429 2-215) with R23A, K27A
Experimental: as §1
(§3) An alternative explanation is that SA, at low concentrations, affects another factor in vivo, which results indirectly in suppression of HMGB1^RE-induced chemotaxis. […] Therefore, these residues were mutated to Ala to form the double mutant Arg24Ala/Lys28Ala (R24A/K28A).

[4] = target: T5, full-length (FL) R24A/K28A HMGB1 (Homo sapiens, UniProt P09429, K28A/R24A); experiment: 15N-1H HSQC NMR binding to R24A/K28A HMGB1; settings: ~0.1 mM protein; 15 mM SA, 3 mM ac3AESA or 3 mM amorfrutin B1
T5 construct: (i) full length: residues 2-215; made in house
T5 sequence (P09429 2-215 R24A/K28A): T3 sequence (P09429 2-215) with R23A, K27A
Experimental: […] Samples were analyzed with and without SA or other candidate inhibitors at 25° C. Chemical shift perturbation studies were carried out using either a Bruker Avance 800 MHz Avance NMR system with 4-mm NMR tubes, or using a Bruker Avance 600 MHz NMR spectrometer equipped with a 1.7 mm micro cryoprobe. 1024 or 2048 complex points were acquired for each of 80 to 200 increments in the ^15N dimension with a recycle delay of 1 s. Each spectrum was typically acquired for 2-8 hrs. Chemical shift assignments were determined using a uniformly ^13C,^15N-enriched HMGB1-ΔC construct at 25° C. via traditional triple-resonance NMR experiments (Biamonti et al., 1994; Moseley et al., 2001) recorded on a Bruker 800 MHz NMR spectrometer equipped with a 5 mm cryoprobe. Disulfide oxidation studies were carried out using the ^15N-^1H SOFAST-HMQC NMR experiment (Schanda & Brutscher, 2005; Schanda et al., 2005; Zandarashvili et al., 2013).
as §3

Structure (SMILES): NCCc1cccc(C(=O)O)c1O [3AESA, 3-aminoethyl SA]
- binding of AtHMGB1 to 3AESA immobilized to SPR sensor chip (AtHMGB1): effectively bound
- binding of AtHMGB3 to 3AESA immobilized to SPR sensor chip (AtHMGB3): effectively bound

Structure (SMILES): CC(=O)Oc1ccccc1C(=O)O [aspirin, acetylsalicylic acid]
- IC50, inhibition of COX activity in vitro (COX; literature (Mitchell et al., 1997; Vane, 1971)): 6.3 mg/L
- IC50 (COX; literature, conversion in parentheses, read-out: IC50, inhibition of COX activity in vitro): ~35 µM
- half-life of conversion to SA [1]: 13 to 19.5 min

Structure (SMILES): COc1cc(CCc2ccccc2)c(C(=O)O)c(O)c1C/C=C(\C)CCC=C(C)C [amorfrutin B1]
- IC50 (HMGB1^RE; NIH/3T3 fibroblasts, 1 nM HMGB1^RE, read-out: IC50, inhibition of chemo-attractant activity of HMGB1^RE): ~0.06 µM
- times more potent than SA at inhibiting the chemo-attractant activity of HMGB1^RE (HMGB1^RE; relative to SA): 50-70 times
- effect on fibroblast migration induced by fMLP [2]: but not of 0.1 nM fMLP, was blocked
- inhibition of R24A/K28A HMGB1^RE's chemo-attractant activity [3]: only partially
- binding to R24A/K28A HMGB1 (CSPs in HSQC) [4]: do not bind

— patent US20180045715A1, “STRUCTURE AND FUNCTION OF THE SALICYCLIC ACID BINDING SITES ON HUMAN HMGB1 AND METHODS OF USE THEREOF FOR THE RATIONAL DESIGN OF BOTH SALICYCLIC ACID DERIVATIVES AND OTHER AGENTS THAT ALTER ANIMAL AND PLANT HMGBS ACTIVITIES” (Boyce Thompson Institute for Plant Research, Inc., priority 2015, published 2018)
